Data published in patent publication US10172875B2, “Therapeutic combinations comprising anti-FOLR1 immunoconjugates” (ImmunoGen, Inc., priority 2015, dated 2019).
Like-named read-outs stand apart in the source and are kept apart here.

Assays:
[1] = test system: OV90 serous ovarian tumor xenografts; assay: Antitumor activity of IMGN853 (2.5 mg/kg), bevacizumab and combination in OV90 tumor model (Example 3); assay type: in vivo, SCID mice; conditions: IMGN853 2.5 mg/kg 1× and/or bevacizumab 5 mg/kg 1×
Description: FIG. 2B depicts the results.

[2] = test system: OV90 serous ovarian tumor xenografts; assay: Antitumor activity of IMGN853 (1.25 mg/kg), paclitaxel, bevacizumab and combinations in OV90 tumor model (Example 4); assay type: in vivo, SCID mice; conditions: single doses: IMGN853 1.25 mg/kg, paclitaxel 10 mg/kg, bevacizumab 5 mg/kg
Description: Mice were randomized into groups (n=8 per group) by tumor volume and subsequently dosed on Day 14 post-inoculation. All treatments consisted of single doses (1×).
Tumor volumes were measured one to two times weekly in three dimensions using a caliper. […] Body weights were measured twice per week as an index of toxicity.

[3] = test system: ST088 human epithelial ovarian cancer (EOC) patient-derived tumor xenografts; assay: Antitumor activity of IMGN853, bevacizumab, paclitaxel and combinations in ST088 tumor model (Example 6); assay type: in vivo, SCID mice; conditions: QWx2: IMGN853 5 mg/kg, bevacizumab 5 mg/kg, paclitaxel 10 mg/kg
Description: Tumor volumes were measured twice weekly in three dimensions using a caliper.

[4] = test system: OV90 serous ovarian tumor xenografts; conditions: IMGN853 5 mg/kg 1× and/or bevacizumab 5 mg/kg 1×
Description: Mice were randomized into groups (n=6 per group) by tumor volume and subsequently dosed on Day 14 post-inoculation.
Tumor volumes were measured one to two times weekly in three dimensions using a caliper. The tumor volume was expressed in mm^3 using the formula V=Length×Width×Height×½ (Tomayko and Reynolds, Cancer Chemother. Pharmacol. 24:148-54 (1989)) Body weights were measured twice per week as an index of toxicity. Activity was assessed as described in Bissery et al. (1991).

IMGN853
T/C [1]: 36% | TFS [1]: 0/6 | antitumor activity rating [1]: active | CR ([1]; responders/animals): 0/6 | TFS [2]: 0/7 | antitumor activity rating [2]: active | T/C ([2]; alone or combined): 37% | CR ([2]; responders/animals): 0/7 | antitumor activity rating [3]: active | T/C ([3]; alone or combined): 31% | CR ([3]; responders/animals): 0/8 | PR ([3]; responders/animals): 0/8 | T/C [4]: 36% | antitumor activity rating [4]: active | tumor free survivors (TFS) [4]: 0/5 | CR ([4]; responders/animals): 1/5
